Data from PubChem BioAssay AID330 (DTP/NCI, 2004).
Where “and” joins values, the source holds several entries; their conditions need not be identical. Identical values can stand only once. Inconclusive results and toxic doses are left out. Rule for the calls: active = survival T/C of 150% or more; inactive = T/C below 125% in these data.

Test system: P388 leukemia ip, CD2F1 mice, survival T/C
Experiment: NCI In Vivo Anticancer Drug Screen. Data for tumor model P388 Leukemia (intraperitoneal) in CD2F1 (CDF1) mice
Conditions: endpoint: median survival time, higher = longer survival
Method in brief: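 Mice carrying the transplanted tumor received test compound or vehicle. Survival was recorded in each group, and the value is the treated-group measurement divided by that of the vehicle-treated control group.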

[1] = dose: 25.0 mg/kg/injection, schedule: Q01DX005 (ip), vehicle: saline
[2] = dose: 50.0 mg/kg/injection, schedule: Q01DX005 (ip), vehicle: saline
[3] = dose: 50.0 mg/kg/injection, schedule: Q01DX009 (ip), vehicle: saline
[4] = dose: 100.0 mg/kg/injection, schedule: Q01DX009 (ip), vehicle: saline
[5] = dose: 200.0 mg/kg/injection, schedule: Q01DX009 (ip), vehicle: saline
[6] = dose: 100.0 mg/kg/injection, schedule: Q01DX009 (ip), vehicle: saline with Tween-80
[7] = dose: 100.0 mg/kg/injection, schedule: Q04DX003 (ip), vehicle: saline with Tween-80
[8] = dose: 200.0 mg/kg/injection, schedule: Q04DX003 (ip), vehicle: saline with Tween-80
[9] = dose: 400.0 mg/kg/injection, schedule: Q04DX003 (ip), vehicle: saline with Tween-80
[10] = dose: 50.0 mg/kg/injection, schedule: Q01DX009 (ip), vehicle: Klucel (hydroxypropylcellulose) (HPC)
[11] = dose: 100.0 mg/kg/injection, schedule: Q01DX009 (ip), vehicle: Klucel (hydroxypropylcellulose) (HPC)
[12] = dose: 200.0 mg/kg/injection, schedule: Q01DX009 (ip), vehicle: Klucel (hydroxypropylcellulose) (HPC)
[13] = dose: 50.0 mg/kg/injection, schedule: Q01DX005 (ip), vehicle: saline with Tween-80
[14] = dose: 100.0 mg/kg/injection, schedule: Q01DX005 (ip), vehicle: saline with Tween-80
[15] = dose: 200.0 mg/kg/injection, schedule: Q01DX005 (ip), vehicle: saline with Tween-80
[16] = dose: 50.0 mg/kg/injection, schedule: Q01DX005 (ip), vehicle: Klucel (hydroxypropylcellulose) (HPC)
[17] = dose: 100.0 mg/kg/injection, schedule: Q01DX005 (ip), vehicle: Klucel (hydroxypropylcellulose) (HPC)
[18] = dose: 200.0 mg/kg/injection, schedule: Q01DX005 (ip), vehicle: Klucel (hydroxypropylcellulose) (HPC)

Measured: T/C

CC1CN(C2CCCCC2)CO1 (centres undefined)
inactive: dose: 12.5 mg/kg/injection, schedule: Q01DX005 (ip), vehicle: saline 104 % of control and 105 % of control | [1] 104 % of control and 112 % of control | [2] 117 % of control and 118 % of control and 124 % of control | dose: 100.0 mg/kg/injection, schedule: Q01DX005 (ip), vehicle: saline 121 % of control and 124 % of control | dose: 200.0 mg/kg/injection, schedule: Q01DX005 (ip), vehicle: saline 109 % of control

CCOC(=O)C(C)(C)S(=O)(=O)Nc1ccccc1
inactive: dose: 60.0 mg/kg/injection, schedule: Q01DX005 (ip), vehicle: Klucel (hydroxypropylcellulose) (HPC) 105 % of control | dose: 120.0 mg/kg/injection, schedule: Q01DX005 (ip), vehicle: Klucel (hydroxypropylcellulose) (HPC) 102 % of control | dose: 240.0 mg/kg/injection, schedule: Q01DX005 (ip), vehicle: Klucel (hydroxypropylcellulose) (HPC) 102 % of control

CC(=O)NC(Cc1cnc[nH]1)C(C)=O (centres undefined)
inactive: [3] 100 % of control | [4] 98 % of control | [5] 104 % of control

O=[N+]([O-])c1ccc2c(N=Nc3ccc4ccccc4c3O)c(O)cc(S(=O)(=O)O)c2c1
inactive: [6] 90 % of control | [7] 95 % of control | [8] 100 % of control | [9] 100 % of control

Cc1ccc(C(=O)NC2C(=O)NC(C(C)C)C(=O)N3CCCC3C(=O)N(C)CC(=O)N(C)C(C(C)C)C(=O)OC2C)c2c1Oc1c(c(C(=O)NC3C(=O)NC(C(C)C)C(=O)N4CCCC4C(=O)N(C)CC(=O)N(C)C(C(C)C)C(=O)OC3C)c3nc(-c4ccccc4)c(=O)oc3c1C)N2 (centres undefined)
active: dose: 0.13 mg/kg/injection, schedule: Q01DX005 (ip), vehicle: water 168 % of control | dose: 0.25 mg/kg/injection, schedule: Q01DX005 (ip), vehicle: water 181 % of control and 240 % of control | dose: 1.0 mg/kg/injection, schedule: Q01DX005 (ip), vehicle: water 246 % of control

CC(C)CCCCCCCCCCCCC(=O)NCC(=O)O
inactive: dose: 12.5 mg/kg/injection, schedule: Q01DX009 (ip), vehicle: distilled water + Tween-80 96 % of control | dose: 25.0 mg/kg/injection, schedule: Q01DX009 (ip), vehicle: distilled water + Tween-80 96 % of control | dose: 50.0 mg/kg/injection, schedule: Q01DX009 (ip), vehicle: distilled water + Tween-80 86 % of control | dose: 100.0 mg/kg/injection, schedule: Q01DX009 (ip), vehicle: distilled water + Tween-80 86 % of control | dose: 200.0 mg/kg/injection, schedule: Q01DX009 (ip), vehicle: distilled water + Tween-80 87 % of control

Cc1nn(C(=O)c2ccncc2)c(C)c1N=Nc1ccc(S(=O)(=O)Nc2ccccn2)cc1
inactive: [10] 100 % of control | [11] 91 % of control | [12] 92 % of control

COc1cc(Br)c(/C=C/[N+](=O)[O-])cc1OC
inactive: [7] 116 % of control

O[C@]12C=C[C@H](CCCC1)O2
inactive: [13] 107 % of control | [14] 108 % of control | [15] 111 % of control

Cc1ncc(C(=O)O)n1C(C)c1ccccc1 (centres undefined)
inactive: dose: 60.0 mg/kg/injection, schedule: Q01DX005 (ip), vehicle: saline with Tween-80 108 % of control | dose: 120.0 mg/kg/injection, schedule: Q01DX005 (ip), vehicle: saline with Tween-80 103 % of control | dose: 240.0 mg/kg/injection, schedule: Q01DX005 (ip), vehicle: saline with Tween-80 110 % of control

N#CCCN(N)S(=O)(=O)c1ccc(Br)cc1
inactive: [16] 102 % of control | [17] 96 % of control | [18] 115 % of control

O=C(CS(=O)(=O)c1ccccc1)CS(=O)(=O)c1ccccc1
inactive: [10] 96 % of control | [11] 98 % of control | [12] 99 % of control

O=P1(Nc2ccc(Cl)cc2)N(Cc2ccc(Cl)cc2)CCCN1Cc1ccc(Cl)cc1
inactive: [13] 93 % of control | [14] 92 % of control | [15] 98 % of control

CCn1c(=O)c2[nH]c(-n3c(Cl)nc4c3c(=O)n(CC)c(=O)n4CC)nc2n(CC)c1=O
inactive: [10] 101 % of control | [11] 98 % of control | [12] 120 % of control

COc1ccc(N=Nc2c(-c3cccs3)nn(C(=S)SC)c2C(F)(F)F)cc1
inactive: dose: 7.5 mg/kg/injection, schedule: Q01DX005 (ip), vehicle: saline with Tween-80 101 % of control | dose: 15.0 mg/kg/injection, schedule: Q01DX005 (ip), vehicle: saline with Tween-80 108 % of control | dose: 30.0 mg/kg/injection, schedule: Q01DX005 (ip), vehicle: saline with Tween-80 95 % of control

Cc1nc(N)c2c3c(sc2n1)CCCC3
inactive: [13] 95 % of control | [14] 97 % of control | [15] 100 % of control

CC1(C)Nc2cc3c(cc2-n2cccc21)oc1ccccc13
inactive: dose: 12.5 mg/kg/injection, schedule: Q01DX005 (ip), vehicle: Klucel (hydroxypropylcellulose) (HPC) 111 % of control | dose: 25.0 mg/kg/injection, schedule: Q01DX005 (ip), vehicle: Klucel (hydroxypropylcellulose) (HPC) 99 % of control | dose: 50.0 mg/kg/injection, schedule: Q01DX005 (ip), vehicle: DMSO 100 % of control | [16] 105 % of control | dose: 100.0 mg/kg/injection, schedule: Q01DX005 (ip), vehicle: DMSO 95 % of control | [17] 101 % of control | dose: 200.0 mg/kg/injection, schedule: Q01DX005 (ip), vehicle: DMSO 96 % of control | [18] 111 % of control | dose: 400.0 mg/kg/injection, schedule: Q01DX005 (ip), vehicle: DMSO 100 % of control | dose: 800.0 mg/kg/injection, schedule: Q01DX005 (ip), vehicle: DMSO 98 % of control

NC(C(=O)O)C1C=CCC1 (centres undefined)
inactive: [16] 106 % of control | [17] 99 % of control

c1cnc2nc3c4ccccc4c4ccccc4c3nc2c1
inactive: dose: 50.0 mg/kg/injection, schedule: Q01DX009 (ip), vehicle: saline with Tween-80 104 % of control and 94 % of control | [6] 104 % of control and 122 % of control and 93 % of control | dose: 200.0 mg/kg/injection, schedule: Q01DX009 (ip), vehicle: saline with Tween-80 101 % of control and 110 % of control and 86 % of control

CCO/C([O-])=C(\C=N\[n+]1ccccc1C)c1ccccc1
inactive: [3] 109 % of control | [4] 110 % of control | [5] 109 % of control

CC1OCN2CCCCC12 (centres undefined)
inactive: [1] 107 % of control | [2] 118 % of control

CCCCN(CCCC)c1nsc(N2CCCCC2)n1
inactive: dose: 45.0 mg/kg/injection, schedule: Q01DX009 (ip), vehicle: saline with Tween-80 113 % of control | dose: 90.0 mg/kg/injection, schedule: Q01DX009 (ip), vehicle: saline with Tween-80 117 % of control | dose: 180.0 mg/kg/injection, schedule: Q01DX009 (ip), vehicle: saline with Tween-80 118 % of control

CC([NH-])CC(C)[NH-].[Br][Pt+2][Br] (centres undefined)
active: dose: 6.25 mg/kg/injection, schedule: Q04DX002 (ip), vehicle: saline with Tween-80 154 % of control and 171 % of control and 159 % of control | dose: 12.5 mg/kg/injection, schedule: Q04DX002 (ip), vehicle: saline with Tween-80 188 % of control and 183 % of control and 186 % of control

COc1ccccc1NC(=O)N(CCCl)N=O
active: dose: 3.0 mg/kg/injection, schedule: Q04DX003 (ip), vehicle: saline with Tween-80 154 % of control | dose: 6.0 mg/kg/injection, schedule: Q04DX003 (ip), vehicle: saline with Tween-80 168 % of control | dose: 6.25 mg/kg/injection, schedule: Q01DX009 (ip), vehicle: saline with Tween-80 163 % of control | dose: 6.25 mg/kg/injection, schedule: Q04DX003 (ip), vehicle: saline with Tween-80 168 % of control | dose: 12.5 mg/kg/injection, schedule: Q01DX009 (ip), vehicle: saline with Tween-80 200 % of control | dose: 12.5 mg/kg/injection, schedule: Q04DX003 (ip), vehicle: saline with Tween-80 190 % of control | dose: 16.5 mg/kg/injection, schedule: Q04DX003 (ip), vehicle: saline with Tween-80 152 % of control | dose: 25.0 mg/kg/injection, schedule: Q04DX003 (ip), vehicle: saline with Tween-80 272 % of control
inactive: dose: 25.0 mg/kg/injection, schedule: Q01DX009 (ip), vehicle: saline with Tween-80 95 % of control | dose: 37.5 mg/kg/injection, schedule: Q04DX003 (ip), vehicle: saline with Tween-80 123 % of control

N/N=C(/c1ccc(Cl)cc1)N1CCOCC1
inactive: [7] 103 % of control | [8] 103 % of control | [9] 98 % of control
